Experimental findings from paper PMC4996933, “Shared active site architecture between archaeal PolD and multi-subunit RNA polymerases revealed by X-ray crystallography” (Nature Communications, 2016) are described below.

In this assay the target is T1, PolD DP1 (144-622), proofreading exonuclease subunit (Pyrococcus abyssi, UniProt Q9V2F3).
T1 construct: gene polB; residues 144-622, flexible N-terminal region removed; N-terminal 14-His tag cut with TEV; E. coli BL21(DE3) Rosetta2; di-metal site Fe3+/Zn2+; two copies in the asymmetric unit
T1 sequence (Q9V2F3 141-619): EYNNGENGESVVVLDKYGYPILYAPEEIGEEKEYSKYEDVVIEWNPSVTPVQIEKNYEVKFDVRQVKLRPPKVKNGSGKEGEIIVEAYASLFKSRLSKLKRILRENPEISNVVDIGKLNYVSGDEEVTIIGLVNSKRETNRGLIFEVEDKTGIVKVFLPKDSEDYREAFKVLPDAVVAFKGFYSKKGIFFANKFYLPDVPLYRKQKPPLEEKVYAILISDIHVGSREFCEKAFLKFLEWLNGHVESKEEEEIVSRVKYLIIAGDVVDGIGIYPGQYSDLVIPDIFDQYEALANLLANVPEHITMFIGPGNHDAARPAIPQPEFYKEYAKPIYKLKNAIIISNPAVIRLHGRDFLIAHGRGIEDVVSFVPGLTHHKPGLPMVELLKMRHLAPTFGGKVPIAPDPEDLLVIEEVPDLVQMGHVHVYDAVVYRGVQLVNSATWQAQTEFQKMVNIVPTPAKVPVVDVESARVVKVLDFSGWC
Briefly: X-ray crystallography, co-crystallization, […] Å. The settings on record: 5 mM dAMP, pH 6.7, 4 °C; Fe3+/Zn2+ nuclease active site; calcium acetate in crystallization buffer. The format is binding.

As for `Nc1ncnc2c1ncn2[C@H]1C[C@H](O)[C@@H](COP(=O)(O)O)O1` [dAMP], the “X-ray crystallography, co-crystallization, 2.5 Å” value was “DP1 was co-crystallized together with deoxy-adenosine monophosphate (dAMP)”.
